Test results: PubChem BioAssay (NCI)
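1) Cells in 96-well plates. 2) Compound, 48 h, 5 concentrations. 3) Linear interpolation between surrounding doses. 4) Unreached endpoint = highest concentration. Abbreviation: GI50, concentration required for 50% inhibition of growth. At the TGI there is no net growth.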

Tests used:
Assay in all cases: growth of human tumour cells (NCI), 48 h
A549 NSCLC = test system: A549 NSCLC
M14 melanoma = test system: M14 melanoma
OVCAR-8 ovarian = test system: OVCAR-8 ovarian
HT29 colon = test system: HT29 colon
LOX IMVI melanoma = test system: LOX IMVI melanoma
TK-10 renal = test system: TK-10 renal
RXF 393 renal = test system: RXF 393 renal
MALME-3M melanoma = test system: MALME-3M melanoma
HCT-15 colon = test system: HCT-15 colon
MDA-MB-435 = test system: MDA-MB-435

Compound: OCCN(CO)CN(CN(CO)CCO)c1nc(N(CN(CO)CCO)CN(CO)CCO)nc(N(CN(CO)CCO)CN(CO)CCO)n1
- GI50 (A549 NSCLC): 1.81 ng/mL
- TGI (A549 NSCLC): 131 ng/mL
- GI50 (M14 melanoma): 1.21 ng/mL
- TGI (M14 melanoma): 2.91 ng/mL
- GI50 (OVCAR-8 ovarian): 1.54 ng/mL
- TGI (OVCAR-8 ovarian): 5500 ng/mL
- GI50 (HT29 colon): 0.911 ng/mL
- TGI (HT29 colon): 15.2 ng/mL

Compound: N=C(c1ccccc1)N1CCCCC1
- TGI (A549 NSCLC): > 100 µM
- TGI (LOX IMVI melanoma): > 100 µM
- TGI (TK-10 renal): > 100 µM
- TGI (RXF 393 renal): > 100 µM
- TGI (MALME-3M melanoma): > 100 µM
- TGI (M14 melanoma): > 100 µM
- TGI (OVCAR-8 ovarian): > 100 µM
- TGI (HT29 colon): > 100 µM

Compound: COc1cc2c(cc1OC)-c1c(cnn1C1OC(COC(C)=O)C(OC(C)=O)C(OC(C)=O)C1OC(C)=O)CC2 (stereo not drawn)
- TGI (A549 NSCLC): > 100 µM
- TGI (HCT-15 colon): > 100 µM
- TGI (LOX IMVI melanoma): > 100 µM
- TGI (TK-10 renal): > 100 µM
- TGI (M14 melanoma): > 100 µM
- TGI (OVCAR-8 ovarian): > 100 µM
- TGI (HT29 colon): > 100 µM

Compound: C/C(=N\NC(=S)N(C)C)c1ncc[nH]1
- TGI (A549 NSCLC): > 100 µM
- TGI (HCT-15 colon): > 100 µM
- TGI (LOX IMVI melanoma): > 100 µM
- TGI (TK-10 renal): > 100 µM
- TGI (RXF 393 renal): > 100 µM
- TGI (MALME-3M melanoma): 21.6 µM
- TGI (M14 melanoma): 5.69 µM
- TGI (OVCAR-8 ovarian): > 100 µM
- TGI (HT29 colon): > 100 µM

Compound: COc1ccc2c(c1)[nH]c(=O)c1c3cccnc3cn21
- GI50 (A549 NSCLC): 0.0479 µM
- TGI (A549 NSCLC): 24.4 µM
- GI50 (HCT-15 colon): 0.043 µM
- TGI (HCT-15 colon): 29.3 µM
- GI50 (LOX IMVI melanoma): 0.0679 µM
- TGI (LOX IMVI melanoma): 14 µM
- GI50 (TK-10 renal): 0.056 µM
- TGI (TK-10 renal): 18.8 µM
- GI50 (RXF 393 renal): 0.0195 µM
- TGI (RXF 393 renal): 0.055 µM
- GI50 (MALME-3M melanoma): 0.0437 µM
- TGI (MALME-3M melanoma): 18.3 µM
- GI50 (M14 melanoma): 0.0265 µM
- TGI (M14 melanoma): 19.9 µM
- GI50 (OVCAR-8 ovarian): 0.0514 µM
- TGI (OVCAR-8 ovarian): 21.2 µM
- GI50 (HT29 colon): 0.03 µM
- TGI (HT29 colon): 0.168 µM

Compound: Cc1sc2ncnc(Sc3nc4ccccc4[nH]3)c2c1C
- GI50 (A549 NSCLC): 21.5 µM
- TGI (A549 NSCLC): 73 µM
- GI50 (MDA-MB-435): 26.3 µM
- TGI (MDA-MB-435): > 100 µM
- GI50 (HCT-15 colon): 28.2 µM
- TGI (HCT-15 colon): > 100 µM
- GI50 (LOX IMVI melanoma): 21.2 µM
- TGI (LOX IMVI melanoma): > 100 µM
- GI50 (TK-10 renal): 28.5 µM
- TGI (TK-10 renal): 62.4 µM
- GI50 (MALME-3M melanoma): 15.6 µM
- TGI (MALME-3M melanoma): 80.1 µM
- GI50 (M14 melanoma): 41.1 µM
- TGI (M14 melanoma): > 100 µM
- GI50 (OVCAR-8 ovarian): 20.7 µM
- TGI (OVCAR-8 ovarian): 62.7 µM
- GI50 (HT29 colon): 21.9 µM
- TGI (HT29 colon): 53.6 µM

Compound: COc1ccccc1NC(=O)CC(=O)n1nc(C)c(N=Nc2ccccc2F)c1C
- TGI (A549 NSCLC): > 100 µM
- TGI (HCT-15 colon): > 100 µM
- TGI (LOX IMVI melanoma): > 100 µM
- TGI (TK-10 renal): > 100 µM
- TGI (RXF 393 renal): > 100 µM
- TGI (M14 melanoma): > 100 µM
- TGI (OVCAR-8 ovarian): > 100 µM
- TGI (HT29 colon): > 100 µM

Compound: CCCOc1ccc(/C=C\c2cc(OC)c(OC)c(OC)c2)cc1
- TGI (A549 NSCLC): > 100 µM
- TGI (HCT-15 colon): > 100 µM
- TGI (LOX IMVI melanoma): > 100 µM
- TGI (TK-10 renal): > 100 µM
- TGI (RXF 393 renal): > 100 µM
- TGI (MALME-3M melanoma): > 100 µM
- TGI (M14 melanoma): > 100 µM
- TGI (OVCAR-8 ovarian): > 100 µM
- TGI (HT29 colon): > 100 µM

Compound: COC(=O)Nc1ccc2ccc3c(NC(=O)OC)ccc4ccc1c2c43 (tested in a mixture with another compound)
- GI50 (A549 NSCLC): 7.78 µM
- TGI (A549 NSCLC): > 50 µM
- GI50 (HCT-15 colon): 2.63 µM
- TGI (HCT-15 colon): > 50 µM
- GI50 (LOX IMVI melanoma): 6.67 µM
- TGI (LOX IMVI melanoma): 19 µM
- GI50 (TK-10 renal): 16.9 µM
- TGI (TK-10 renal): > 50 µM
- GI50 (RXF 393 renal): 7.3 µM
- TGI (RXF 393 renal): 20.5 µM
- GI50 (MALME-3M melanoma): 7.43 µM
- TGI (MALME-3M melanoma): > 50 µM
- GI50 (M14 melanoma): 3.93 µM
- TGI (M14 melanoma): > 50 µM
- GI50 (OVCAR-8 ovarian): 14.3 µM
- TGI (OVCAR-8 ovarian): > 50 µM
- GI50 (HT29 colon): 4.31 µM
- TGI (HT29 colon): > 50 µM
